Measured values from patent EP1389624A1, “Phosphorous-containing cysteine and serine protease inhibitors” (CEPHALON, INC., priority 1995, dated 1997).
Structures can show the parent of a compound that is named as a salt.

Biological target: T1, Calpain I (Homo sapiens, UniProt P07384)
T1 sequence (P07384 1-714): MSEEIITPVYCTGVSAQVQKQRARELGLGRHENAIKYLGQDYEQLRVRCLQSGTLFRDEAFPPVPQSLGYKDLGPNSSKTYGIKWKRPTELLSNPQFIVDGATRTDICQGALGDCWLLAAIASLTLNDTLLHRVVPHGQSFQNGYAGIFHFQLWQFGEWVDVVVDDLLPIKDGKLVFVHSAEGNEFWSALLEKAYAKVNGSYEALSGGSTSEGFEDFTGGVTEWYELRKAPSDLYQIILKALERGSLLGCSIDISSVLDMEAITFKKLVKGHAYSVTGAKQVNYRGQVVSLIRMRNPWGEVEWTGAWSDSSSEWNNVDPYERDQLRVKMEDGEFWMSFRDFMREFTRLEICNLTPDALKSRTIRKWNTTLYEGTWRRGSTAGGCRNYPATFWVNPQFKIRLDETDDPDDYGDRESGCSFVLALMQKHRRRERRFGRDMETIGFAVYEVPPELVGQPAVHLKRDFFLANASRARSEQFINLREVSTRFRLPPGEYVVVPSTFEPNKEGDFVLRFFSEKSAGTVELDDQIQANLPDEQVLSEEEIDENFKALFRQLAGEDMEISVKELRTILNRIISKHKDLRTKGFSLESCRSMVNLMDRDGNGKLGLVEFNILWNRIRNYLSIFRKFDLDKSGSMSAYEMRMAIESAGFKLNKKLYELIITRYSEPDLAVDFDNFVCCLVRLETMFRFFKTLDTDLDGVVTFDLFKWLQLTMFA
T1 sequence (P04632 1-268 partner): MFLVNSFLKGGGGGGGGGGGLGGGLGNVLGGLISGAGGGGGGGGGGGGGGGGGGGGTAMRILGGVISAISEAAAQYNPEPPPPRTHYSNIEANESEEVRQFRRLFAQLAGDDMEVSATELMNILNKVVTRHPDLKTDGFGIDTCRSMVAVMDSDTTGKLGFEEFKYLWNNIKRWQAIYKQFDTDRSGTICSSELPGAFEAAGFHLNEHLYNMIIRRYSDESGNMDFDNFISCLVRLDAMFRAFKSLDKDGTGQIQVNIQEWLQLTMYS
Test: Inhibition and rate of inactivation of cysteine protease (calpain I) activity, Succ-Leu-Tyr-MNA substrate hydrolysis
Conditions: for inhibition at 0.1 µM: read-out: % Inhib. @ 0.1 uM; for kobs/I x 10^-3 M^-1s^-1: apparent second order rate constant of inactivation from reaction progress curves under pseudo-first order conditions, mean of three or more determinations; for kinact/KI: read-out: kobs/I x 10^-3 M^-1s^-1
Procedure: To evaluate inhibitory activity, stock solutions (40 times concentrated) of each compound to be tested were prepared in 100% anhydrous DMSO and 5 µl of each inhibitor preparation were aliquoted into each of three wells of a 96 well plate. […] To start the reaction, 20 µl of 50 mM CaCl2 in assay buffer was added to all wells of the plate, excepting three, which were used as background signal baseline controls. Substrate hydrolysis was monitored every 5 minutes for a total of 30 minutes. Substrate hydrolysis in the absence of inhibitor was linear for up to 15 minutes.
Inhibition of calpain I activity was calculated as the percent decrease in the rate of substrate hydrolysis in the presence of inhibitor (vi) relative to the rate in its absence (vo). Comparison between vo and vi was made within the linear range for substrate hydrolysis. […] Apparent second order rate constants were determined from analysis of reaction progress curves under pseudo-first order conditions. Each determination represents the mean of three or more independent single cuvette analyses continually monitored via a Perkin-Elmer LS50B spectrofluorimeter.

CC(C)C[C@H](NC(=O)OCc1ccccc1)C(=O)N[C@@H](Cc1ccccc1)C(=O)COP(=O)(OCc1cccc(Oc2ccccc2)c1)OCc1cccc(Oc2ccccc2)c1 [Example 40, Bis(3-phenoxybenzyl) (3S)-[3-[(N-Benzyloxycarbonyl-L-leucyl)amino]-2-oxo-4-phenylbutyl] phosphate] was tested, and the inhibition at 0.1 µM was 53%.
In the case of CCP(=O)(OCC(=O)[C@H](Cc1ccccc1)NC(=O)[C@H](CC(C)C)NC(=O)OCc1ccccc1)c1ccccc1 (stereo partly drawn) [Example 60, (3S)-[3-[(N-Benzyloxycarbonyl-L-leucyl)amino]-2-oxo-4-phenylbutyl] (ethyl) (phenyl)phosphinate], the “kobs/I x 10^-3 M^-1s^-1” value is reported as 6 x 10^-3 M^-1s^-1 and the inhibition at 0.1 µM is reported as 51%.
For COc1ccc(P(=O)(OCC(=O)[C@H](Cc2ccccc2)NC(=O)[C@H](CC(C)C)NC(=O)OCc2ccccc2)c2ccc(OC)cc2)cc1 [Example 57, (3S)-[3-[(N-Benzyloxycarbonyl-L-leucyl)amino]-2-oxo-4-phenylbutyl] bis(4-methoxyphenyl)phosphinate], the inhibition at 0.1 µM was 85% and the kinact/KI was 85000 M⁻¹ s⁻¹.
With COP(=O)(O)C(=O)[C@H](CC(C)C)NC(=O)[C@H](CC(C)C)NC(=O)OCc1ccccc1 [Example 65, Methyl Hydrogen N-Benzyloxycarbonyl-L-leucyl-L-leucylphosphonate] the inhibition at 0.1 µM was 19%.
Work on CCCCC(CC)COP(=O)(OCC(=O)[C@H](Cc1ccccc1)NC(=O)[C@H](CC(C)C)NC(=O)OCc1ccccc1)OCC(CC)CCCC (stereo partly drawn) [Example 44, Bis(2-ethylhexyl) (3S)-[3-[(N-Benzyloxycarbonyl-L-leucyl)amino]-2-oxo-4-phenylbutyl] phosphate] yielded a kinact/KI of 1000 M⁻¹ s⁻¹.
CCCCOP(=O)(OCCCC)OCC(=O)[C@H](Cc1ccccc1)NC(=O)[C@H](CC(C)C)NC(=O)OCc1ccccc1 [Example 43, Dibutyl (3S)-[3-[(N-Benzyloxycarbonyl-L-leucyl)amino]-2-oxo-4-phenylbutyl] phosphate] was tested, and the kinact/KI was 40000 M⁻¹ s⁻¹.
For “(3S)-2-[3-[(N-Benzyloxycarbonyl-L-leucyl)amino]-2-oxo-4-phenylbutyl] 1H-phosphindoline 2-oxide [Example 62]”, the “% Inhib. @ 0.1 uM” value (0.1 uM compound, percent decrease in rate of substrate hydrolysis relative to no inhibitor) was 34%.
With COc1cccc(P(=O)(OCC(=O)[C@H](Cc2ccccc2)NC(=O)[C@H](CC(C)C)NC(=O)OCc2ccccc2)c2ccccc2)c1 (stereo partly drawn) [Example 59, (3S)-[3-[(N-Benzyloxycarbonyl-L-leucyl)amino]-2-oxo-4-phenylbutyl] (3-methoxylphenyl)(phenyl)phosphinate] the kinact/KI was 163000 M⁻¹ s⁻¹.
CC(C)C[C@H](NC(=O)OC(C)(C)C)C(=O)N[C@@H](Cc1ccccc1)C(=O)COP(=O)(OCc1ccccc1)OCc1ccccc1 [Example 35, Dibenzyl (3S)-[3-[(N-t-Butoxycarbonyl-L-leucyl)amino]-2-oxo-4-phenylbutyl] phosphate] gave an inhibition at 0.1 µM of 100% and a kinact/KI of 242000 M⁻¹ s⁻¹.
CC(C)C[C@H](NC(=O)OCc1ccccc1)C(=O)N[C@@H](Cc1ccccc1)C(=O)COP(=O)(CCc1ccccc1)CCc1ccccc1 [Example 54, (3S)-[3-[(N-Benzyloxycarbonyl-L-leucyl)amino]-2-oxo-4-phenylbutyl] bis(2-phenylethyl)phosphinate] gave an inhibition at 0.1 µM of 15% and a kinact/KI of 8000 M⁻¹ s⁻¹.
CC(C)C[C@H](NC(=O)OCc1ccccc1)C(=O)N[C@@H](Cc1ccccc1)C(=O)COP(=O)(OCc1ccccc1)OCc1ccccc1 [Example 34, Dibenzyl (3S)-[3-[(N-Benzyloxycarbonyl-L-leucyl)amino]-2-oxo-4-phenylbutyl] phosphate] was tested, and the kinact/KI was 100000 M⁻¹ s⁻¹.
Work on CCOP(=O)(C(=O)[C@H](CC(C)C)NC(=O)[C@H](CC(C)C)NC(=O)OCc1ccccc1)c1ccccc1 (stereo partly drawn) [Example 68, Ethyl N-benzyloxycarbonyl-L-leucyl-L-leucyl(phenyl)phosphinate] yielded an inhibition at 0.1 µM of 0%.
CCCCCP(=O)(CCCCC)OCC(=O)[C@H](Cc1ccccc1)NC(=O)[C@H](CC(C)C)NC(=O)OCc1ccccc1 [Example 53, (3S)-[3-[(N-Benzyloxycarbonyl-L-leucyl)amino]-2-oxo-4-phenylbutyl] dipentylphosphinate] gave an inhibition at 0.1 µM of 19%.
Work on CC(C)C[C@H](NC(=O)OCc1ccccc1)C(=O)N[C@@H](Cc1ccccc1)C(=O)COP(=O)(OCCN1CCCC1=O)c1ccccc1 (stereo partly drawn) [Example 51, (3S)-[3-[(N-Benzyloxycarbonyl-L-leucyl)amino]-2-oxo-4-phenylbutyl] 2-(2-oxopyrrolidin-1-yl)ethyl phenylphosphonate] yielded a kinact/KI of 26000 M⁻¹ s⁻¹.
With CC(C)C[C@H](NC(=O)OCc1ccccc1)C(=O)N[C@@H](Cc1ccccc1)C(=O)COP(=O)(OCCN1CCOCC1)c1ccccc1 (stereo partly drawn) [Example 50, 2-(Morpholin-4-yl)ethyl (3S)-[3-[(N-benzyloxycarbonyl-L-leucyl)amino]-2-oxo-4-phenylbutyl] phenylphosphonate hydrochloride] the kinact/KI was 70000 M⁻¹ s⁻¹.
CC(C)C[C@H](NC(=O)OC(C)(C)C)C(=O)N[C@@H](Cc1ccccc1)C(=O)COP(=O)(OCCC1CCCCC1)OCCC1CCCCC1 [Example 45, Bis(2-cyclohexylethyl) (3S)-[3-[(N-t-Butoxycarbonyl-L-leucyl)amino]-2-oxo-4-phenylbutyl] phosphate] showed an inhibition at 0.1 µM of 28%.
For CCCCOP(=O)(OCCCC)C(=O)[C@H](CC(C)C)NC(=O)[C@H](CC(C)C)NC(=O)OCc1ccccc1 [Example 66, Dibutyl N-Benzyloxycarbonyl-L-leucyl-L-leucylphosphonate], the inhibition at 0.1 µM was 0%.
For CC(C)C[C@H](NC(=O)C12OC(CO)C(O)C1OC(C)(C)O2)C(=O)N[C@@H](Cc1ccccc1)C(=O)COP(=O)(OCc1ccccc1)OCc1ccccc1 (stereo partly drawn) [Example 38, Dibenzyl (3S)-[3-[(N-monoisopropylidine-2-keto-L-gulonyl-L-leucyl)amino]-2-oxo-4-phenylbutyl] phosphate], the “kobs/I x 10^-3 M^-1s^-1” value was 116 x 10^-3 M^-1s^-1.
Work on CC(C)C[C@H](NC(=O)OCc1ccccc1)C(=O)N[C@@H](Cc1ccccc1)C(=O)COP1(=O)CC=CC1 [Example 63, (3S)-1-[[3-[(N-Benzyloxycarbonyl-L-leucyl)amino]-2-oxo-4-phenylbutyl]oxy]phosphol-3-ene 1-oxide] yielded an inhibition at 0.1 µM of 22%.
For Cc1ccccc1P(=O)(OCC(=O)[C@H](Cc1ccccc1)NC(=O)[C@H](CC(C)C)NC(=O)OC(C)(C)C)c1ccccc1C [Example 56, (3S)-[3-[(N-t-Butoxycarbonyl-L-leucyl)amino]-2-oxo-4-phenylbutyl] bis(2-methylphenyl)phosphinate], the kinact/KI was 22000 M⁻¹ s⁻¹.
Compound CC(C)C[C@H](NC(=O)OCc1ccccc1)C(=O)N[C@@H](Cc1ccccc1)C(=O)COP(=O)(OCCc1ccccc1)OCCc1ccccc1 [Example 46, Diphenethyl (3S)-[3-[(N-Benzyloxycarbonyl-L-leucyl)amino]-2-oxo-4-phenylbutyl] phosphate] has an inhibition at 0.1 µM of 99% and a kinact/KI of 380000 M⁻¹ s⁻¹.
“(3S)-[3-[(N-Benzyloxycarbonyl-L-leucyl)amino]-2-oxo-4-phenylbutyl] [3-(morpholin-4-yl)propyl](phenyl)phosphinate [Example 61]” was tested, and the “kobs/I x 10^-3 M^-1s^-1” value was 17 x 10^-3 M^-1s^-1.
For CC(C)C[C@H](NC(=O)OCc1ccccc1)C(=O)N[C@@H](Cc1ccccc1)C(=O)COP(=O)(OCc1ccccc1)c1ccccc1 (stereo partly drawn) [Example 49, Benzyl (3S)-[3-[(N-Benzyloxycarbonyl-L-leucyl)amino]-2-oxo-4-phenylbutyl]phenylphosphonate], the inhibition at 0.1 µM was 90%.
CCOP(=O)(CC(=O)[C@H](Cc1ccccc1)NC(=O)[C@H](CC(C)C)NC(=O)OCc1ccccc1)c1ccccc1 (stereo partly drawn) [Example 64, Ethyl (3S)-[3-[(N-benzyloxycarbonyl-L-leucyl)amino]-2-oxo-4-phenylbutyl] (phenyl)phosphinate] was tested, and the “kobs/I x 10^-3 M^-1s^-1” value was 4 x 10^-3 M^-1s^-1 and the inhibition at 0.1 µM was 26%.
Compound COP(=O)(OC)OCC(=O)[C@H](Cc1ccccc1)NC(=O)[C@H](CC(C)C)NC(=O)OCc1ccccc1 [Example 42, Dimethyl (3S)-[3-[(N-Benzyloxycarbonyl-L-leucyl)amino]-2-oxo-4-phenylbutyl] phosphate] has a kinact/KI of 20000 M⁻¹ s⁻¹.
CC(C)C[C@H](NC(=O)OCc1ccccc1)C(=O)N[C@@H](CC(C)C)C(=O)P(=O)(c1ccc(Cl)cc1)c1ccc(Cl)cc1 [Example 67, [Benzyloxycarbonyl-L-leucyl-L-leucyl]bis(4-chlorophenyl)phosphine oxide] showed an inhibition at 0.1 µM of 4%.
For Cc1ccccc1P(=O)(OCC(=O)[C@H](Cc1ccccc1)NC(=O)[C@H](CC(C)C)NC(=O)OCc1ccccc1)c1ccccc1C [Example 55, (3S)-[3-[(N-Benzyloxycarbonyl-L-leucyl)amino]-2-oxo-4-phenylbutyl] bis(2-methylphenyl)phosphinate], the kinact/KI was 31000 M⁻¹ s⁻¹.
